From ChEMBL document CHEMBL1155912, “Synthesis of 6- or 4-functionalized indoles via a reductive cyclization approach and evaluation as aromatase inhibitors” (Bioorg Med Chem Lett, 2008)

What follows are compounds tested against T1, CYP17 (steroid 17-alpha-hydroxylase/17,20 lyase) (Homo sapiens, UniProt P05093) (assay: in vitro).
T1 sequence (P05093 whole entry): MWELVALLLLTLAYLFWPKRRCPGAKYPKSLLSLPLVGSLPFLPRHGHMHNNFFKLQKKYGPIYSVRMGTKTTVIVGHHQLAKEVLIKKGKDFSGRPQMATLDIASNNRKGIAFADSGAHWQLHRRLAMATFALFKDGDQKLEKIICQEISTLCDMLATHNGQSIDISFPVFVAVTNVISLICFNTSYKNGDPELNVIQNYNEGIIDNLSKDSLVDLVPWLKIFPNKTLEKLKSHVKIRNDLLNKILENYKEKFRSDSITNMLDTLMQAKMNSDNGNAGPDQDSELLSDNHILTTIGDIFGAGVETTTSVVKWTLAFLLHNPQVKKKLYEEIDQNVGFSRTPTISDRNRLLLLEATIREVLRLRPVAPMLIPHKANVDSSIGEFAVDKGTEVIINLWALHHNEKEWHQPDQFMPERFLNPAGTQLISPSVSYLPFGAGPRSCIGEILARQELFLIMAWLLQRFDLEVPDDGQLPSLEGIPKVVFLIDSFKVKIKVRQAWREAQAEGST
Description: Inhibition of human CYP17 expressed in Escherichia coli pJL17/OR coexpressed with rat NADPH-P450 reductase at 2.5 uM

inhibition at 2.5 µM [%]	Compound
18	N#Cc1ccc(C(c2cccc3[nH]ccc23)n2ccnc2)cc1 (stereo not drawn)
< 10	N#Cc1ccc(C(c2cccc3[nH]ccc23)n2cncn2)cc1 (stereo not drawn)
26	N#Cc1ccc(C(c2ccc3cc[nH]c3c2)n2ccnc2)cc1 (racemic)
